Measured values from patent US12187742B2 (XRAD Therapeutics, Inc., priority 2018, dated 2025).

How the values were obtained:
ATM = ATM (Homo sapiens (Human), UniProt Q13315); experiment: ATM in Cell Western Assay (pKAP1 in etoposide-treated MCF-7 cells); assay type: cell-based; conditions: MCF-7 cells, etoposide 100 μM, 1 hr, pKAP1 readout
Procedure, shortened: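 After paraformaldehyde fixation and Triton X-100 permeabilization, immunostained plates were read by infrared scanning (ODYSSEY CLx). Compound was given as 10 doses, 3-fold dilutions from a 1 μM final top concentration.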

DNA-PK = DNA-PK (Homo sapiens (Human), UniProt P78527); experiment: DNA-PK Enzyme-Linked Immunosorbent Assay (phosphorylation of GST-p53 (1-101) peptide); assay type: biochemical; conditions: ELISA, ATP 20 μM
Experimental: Assay of Compounds ATM and DNA-PK Inhibition
remove wash solution, turn plate upside down onto a thin paper towel and centrifuge at 1000 rpm for 1 min to absorb all wash buffer. Clean the bottom of plate with moist lint free paper. Scan plate immediately using ODYSSEY CLx (LI-COR) for the best results. DNA-PK Enzyme-Linked Immunosorbent Assay:
On day one, coat 96-well plate (ThermoFisher. Cat #: 442404) with GST-p53 (1-101) peptide (purified by Pharmaron, BCS department) by diluting 3 μg of GST-p53 each well with 0.1 M Na2CO3/NaHCO3, pH 9.6. Incubate the plate overnight at 4° C. The second day, remove coating buffer, wash 2× with PBST (1×PBS containing 0.1% Tween-20). Then add DNA-PK enzyme solution (Invitrogen, #PR9107A; the final DNA-PK concentration is 0.1 μg/mL), series dilution compounds (the final top concentration is 100 nM, 3 fold series dilution, with total 10 doses) and ATP solution (the final ATP concentration is 20 μM) to the 96-well plate. Incubate the plate at 25° C. for 1 hour. Then wash 3× with PBST (1×PBS containing 0.1% Tween-20). Block the plate with PBST+ 1% BSA at 4° C. overnight. The third day, wash 4× with PBST (1×PBS containing 0.1% Tween-20). Then add Phospho-p53 primary antibody (cell signaling Technology, #9286, Phospho-p53 (Ser15) (16G8) Mouse mAb) (1/1000) to each well. Seal with plate and incubate the plate for 1 h at 37° C. Wash 4× with PBST (1×PBS containing 0.1% Tween-20), add 100 μL of HRP-linked secondary antibody (Cell signaling Technology, #7076, Anti-mouse IgG, HRP-linked Antibody) (1/1000) to each well. Seal with tape and incubate the plate for 30 min at 37° C. Wash 4× with PBST (1×PBS containing 0.1% Tween-20), add 100 μL of TMB (Cell signaling Technology, #7004) substrate to each well. Seal with tape and incubate the plate for 10 min at 37° C. Then add 100 μL of Stop solution (Cell signaling Technology, #7002) to each well. Read the plate at 450 nm to detect absorption.

Sequence of ATM (Q13315 whole entry): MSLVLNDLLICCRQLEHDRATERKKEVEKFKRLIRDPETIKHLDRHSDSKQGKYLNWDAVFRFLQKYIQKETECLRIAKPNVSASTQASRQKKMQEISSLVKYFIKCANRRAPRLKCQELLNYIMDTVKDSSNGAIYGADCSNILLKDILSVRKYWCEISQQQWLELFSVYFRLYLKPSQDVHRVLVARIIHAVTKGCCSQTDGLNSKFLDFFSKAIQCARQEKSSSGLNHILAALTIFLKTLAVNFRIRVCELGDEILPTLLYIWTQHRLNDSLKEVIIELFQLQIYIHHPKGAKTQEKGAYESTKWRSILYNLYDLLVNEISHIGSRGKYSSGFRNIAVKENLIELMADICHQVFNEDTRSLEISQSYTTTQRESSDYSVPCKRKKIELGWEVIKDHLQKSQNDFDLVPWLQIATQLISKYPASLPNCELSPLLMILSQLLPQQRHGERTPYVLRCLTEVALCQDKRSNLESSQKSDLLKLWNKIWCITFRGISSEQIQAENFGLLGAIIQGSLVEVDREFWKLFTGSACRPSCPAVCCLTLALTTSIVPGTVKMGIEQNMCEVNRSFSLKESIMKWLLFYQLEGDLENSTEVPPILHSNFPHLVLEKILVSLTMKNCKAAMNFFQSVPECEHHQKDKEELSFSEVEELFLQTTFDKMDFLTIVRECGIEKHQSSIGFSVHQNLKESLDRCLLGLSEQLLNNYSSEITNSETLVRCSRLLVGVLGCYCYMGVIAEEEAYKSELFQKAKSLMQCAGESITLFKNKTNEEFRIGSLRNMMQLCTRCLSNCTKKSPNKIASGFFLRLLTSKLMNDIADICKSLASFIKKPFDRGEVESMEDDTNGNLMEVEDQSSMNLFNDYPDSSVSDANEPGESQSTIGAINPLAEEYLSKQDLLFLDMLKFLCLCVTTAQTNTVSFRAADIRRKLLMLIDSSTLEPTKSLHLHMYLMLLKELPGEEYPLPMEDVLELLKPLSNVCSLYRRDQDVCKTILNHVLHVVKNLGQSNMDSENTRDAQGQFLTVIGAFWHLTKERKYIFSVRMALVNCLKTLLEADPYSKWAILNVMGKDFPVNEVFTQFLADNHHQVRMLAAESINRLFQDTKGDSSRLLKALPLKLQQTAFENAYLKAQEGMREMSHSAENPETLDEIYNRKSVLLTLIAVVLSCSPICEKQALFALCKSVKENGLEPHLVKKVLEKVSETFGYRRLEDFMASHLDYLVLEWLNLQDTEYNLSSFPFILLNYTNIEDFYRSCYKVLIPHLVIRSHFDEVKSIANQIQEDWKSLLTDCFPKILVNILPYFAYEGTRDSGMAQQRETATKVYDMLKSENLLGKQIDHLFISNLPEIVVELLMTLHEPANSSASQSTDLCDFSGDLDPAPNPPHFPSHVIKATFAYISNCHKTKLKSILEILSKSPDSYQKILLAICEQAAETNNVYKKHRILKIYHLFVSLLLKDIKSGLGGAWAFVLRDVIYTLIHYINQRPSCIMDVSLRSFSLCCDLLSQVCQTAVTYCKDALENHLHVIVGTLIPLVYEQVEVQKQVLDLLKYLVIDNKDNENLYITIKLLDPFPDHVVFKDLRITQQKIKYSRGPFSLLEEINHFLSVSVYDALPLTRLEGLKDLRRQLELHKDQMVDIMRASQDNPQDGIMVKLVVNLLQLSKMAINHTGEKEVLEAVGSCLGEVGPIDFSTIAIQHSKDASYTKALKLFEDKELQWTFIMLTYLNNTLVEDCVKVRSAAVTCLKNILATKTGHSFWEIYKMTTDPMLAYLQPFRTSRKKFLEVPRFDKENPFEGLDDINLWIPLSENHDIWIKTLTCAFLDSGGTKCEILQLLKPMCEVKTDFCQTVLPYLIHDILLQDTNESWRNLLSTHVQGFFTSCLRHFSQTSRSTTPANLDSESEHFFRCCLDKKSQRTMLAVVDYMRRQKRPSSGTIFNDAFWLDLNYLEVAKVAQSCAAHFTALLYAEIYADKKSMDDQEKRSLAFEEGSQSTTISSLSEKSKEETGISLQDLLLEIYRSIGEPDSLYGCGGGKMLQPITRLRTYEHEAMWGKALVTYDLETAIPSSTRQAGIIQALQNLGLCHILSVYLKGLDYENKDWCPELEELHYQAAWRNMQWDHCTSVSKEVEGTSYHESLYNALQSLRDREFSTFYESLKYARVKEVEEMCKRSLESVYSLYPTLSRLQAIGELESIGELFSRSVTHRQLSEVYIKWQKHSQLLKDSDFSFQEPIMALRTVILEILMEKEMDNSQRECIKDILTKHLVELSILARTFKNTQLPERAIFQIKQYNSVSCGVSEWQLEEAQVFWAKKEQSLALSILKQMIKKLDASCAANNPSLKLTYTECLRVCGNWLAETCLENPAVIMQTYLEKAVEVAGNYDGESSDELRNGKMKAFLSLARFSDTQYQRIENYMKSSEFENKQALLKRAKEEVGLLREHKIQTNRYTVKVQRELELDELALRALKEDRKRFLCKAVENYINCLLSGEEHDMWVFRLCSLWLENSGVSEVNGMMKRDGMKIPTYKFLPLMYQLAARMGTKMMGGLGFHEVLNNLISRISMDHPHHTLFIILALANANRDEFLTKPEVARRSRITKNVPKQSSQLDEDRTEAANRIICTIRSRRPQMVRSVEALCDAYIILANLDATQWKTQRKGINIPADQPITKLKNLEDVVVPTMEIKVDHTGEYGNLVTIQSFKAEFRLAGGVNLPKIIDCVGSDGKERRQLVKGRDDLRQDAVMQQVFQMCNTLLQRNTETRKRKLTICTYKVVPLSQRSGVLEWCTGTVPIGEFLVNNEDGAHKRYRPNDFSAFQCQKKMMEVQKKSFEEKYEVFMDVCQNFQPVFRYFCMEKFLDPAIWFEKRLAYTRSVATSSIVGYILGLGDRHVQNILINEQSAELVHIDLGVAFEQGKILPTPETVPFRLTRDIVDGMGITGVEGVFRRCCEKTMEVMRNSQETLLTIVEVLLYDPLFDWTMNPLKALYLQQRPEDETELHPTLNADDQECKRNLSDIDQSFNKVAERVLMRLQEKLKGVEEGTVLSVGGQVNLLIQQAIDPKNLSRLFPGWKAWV

CN(C)CCOc1ncc(-c2ccc3ncc4c(c3c2)C2(CCCC2)C(=O)N4C)cc1NS(=O)(=O)c1ccccc1 [Example 6, N-(2-(2-(Dimethylamino)ethoxy)-5-(3′-methyl-2′-oxo-2′,3′-dihydrospiro[cyclopentane-1,1′-pyrrolo[2,3-c]quinolin]-8′-yl)pyridin-3-yl)benzenesulfonamide]
IC50 (ATM): 1 to 100 nM
IC50 (DNA-PK): 0.5 to 1 nM

COc1ncc(-c2ccc3ncc4c(c3c2)C2(COC2)C(=O)N4C)cc1NS(=O)(=O)c1ccccc1 [Example 8, N-(2-Methoxy-5-(3′-methyl-2′-oxo-2′,3′-dihydrospiro[oxetane-3,1′-pyrrolo[2,3-c]quinolin]-8′-yl)pyridin-3-yl)benzenesulfonamide]
IC50 (ATM): 1 to 100 nM
IC50 (DNA-PK): < 0.5 nM

COc1ncc(-c2ccc3ncc4c(c3c2)C2(CC2)C(=O)N4C)cc1NS(=O)(=O)c1cccc(Cl)c1 [Example 9, 3-Chloro-N-(2-methoxy-5-(3′-methyl-2′-oxo-2′,3′-dihydrospiro [cyclopropane-1,1′-pyrrolo[2,3-c]quinolin]-8′-yl)pyridin-3-yl)benzenesulfonamide]
IC50 (ATM): 1 to 100 nM
IC50 (DNA-PK): < 0.5 nM

CN(C)c1ncc(-c2ccc3ncc4c(c3c2)C2(CCC2)C(=O)N4C)cc1NS(=O)(=O)c1ccccc1 [Example 10, N-(2-(Dimethylamino)-5-(3′-methyl-2′-oxo-2′,3′-dihydrospiro[cyclobutane-1,1′-pyrrolo[2,3-c]quinolin]-8′-yl)pyridin-3-yl)benzenesulfonamide]
IC50 (ATM): 1 to 100 nM
IC50 (DNA-PK): < 0.5 nM

COc1ncc(-c2ccc3ncc4c(c3c2)C2(CC2)C(=O)N4C)cc1NS(=O)(=O)c1ccc([N+](=O)[O-])cc1 [Example 12, N-(2-Methoxy-5-(3′-methyl-2′-oxo-2′,3′-dihydrospiro [cyclopropane-1,1′-pyrrolo[2,3-c]quinolin]-8′-yl)pyridin-3-yl)-4-nitrobenzenesulfonamide]
IC50 (ATM): 1 to 100 nM
IC50 (DNA-PK): < 0.5 nM

COc1ncc(-c2ccc3ncc4c(c3c2)C2(CC2)C(=O)N4C)cc1NS(=O)(=O)c1cccc(C(C)=O)c1 [Example 13, 3-Acetyl-N-(2-methoxy-5-(3′-methyl-2′-oxo-2′,3′-dihydrospiro [cyclopropane-1,1′-pyrrolo[2,3-c]quinolin]-8′-yl)pyridin-3-yl)benzenesulfonamide]
IC50 (ATM): 1 to 100 nM
IC50 (DNA-PK): < 0.5 nM

COc1ncc(-c2ccc3ncc4c(c3c2)C2(CC2)C(=O)N4C)cc1NS(=O)(=O)c1ccccc1 [Example 14, N-(2-Methoxy-5-(3′-methyl-2′-oxo-2′,3′-dihydrospiro [cyclopropane-1,1′-pyrrolo[2,3-c]quinolin]-8′-yl)pyridin-3-yl)benzenesulfonamide]
IC50 (ATM): 1 to 100 nM
IC50 (DNA-PK): < 0.5 nM

CN1C(=O)C2(CC2)c2c1cnc1ccc(-c3cnc(Cl)c(NS(=O)(=O)c4ccccc4)c3)cc21 [Example 15, N-(2-Chloro-5-(3′-methyl-2′-oxo-2′,3′-dihydrospiro[cyclopropane-1,1′-pyrrolo[2,3-c]quinolin]-8′-yl)pyridin-3-yl)benzenesulfonamide]
IC50 (ATM): 1 to 100 nM
IC50 (DNA-PK): < 0.5 nM

COc1ncc(-c2ccc3ncc4c(c3c2)C2(CC2)C(=O)N4)cc1NS(=O)(=O)c1ccccc1 [Example 19, N-(2-Methoxy-5-(2′-oxo-2′,3′-dihydrospiro [cyclopropane-1,1′-pyrrolo[2,3-c]quinolin]-8′-yl)pyridin-3-yl) benzenesulfonamide]
IC50 (ATM): 1 to 100 nM
IC50 (DNA-PK): < 0.5 nM

COc1ncc(-c2ccc3ncc4c(c3c2)C2(CC2)C(=O)N4CC#N)cc1NS(=O)(=O)c1ccccc1 [Example 21, N-(5-(3′-(Cyanomethyl)-2′-oxo-2′,3′-dihydrospiro[cyclopropane-1,1′-pyrrolo[2,3-c]quinolin]-8′-yl)-2-methoxypyridin-3-yl)benzenesulfonamide]
IC50 (ATM): 1 to 100 nM
IC50 (DNA-PK): < 0.5 nM

CN1C(=O)C2(CC2)c2c1cnc1ccc(-c3ccc4ncccc4c3)cc21 [Example 22, 3′-Methyl-8′-(quinolin-6-yl)spiro[cyclopropane-1,1′-pyrrolo[2,3-c]quinolin]-2′(3′-H)-one]
IC50 (ATM): 1 to 100 nM
IC50 (DNA-PK): 1 to 100 nM

Cc1ncc(-c2ccc3ncc4c(c3c2)C2(CC2)C(=O)N4C)cc1NS(=O)(=O)c1ccccc1 [Example 24, N-(2-Methyl-5-(3′-methyl-2′-oxo-2′,3′-dihydrospiro[cyclopropane-1,1′-pyrrolo[2,3-c]quinolin]-8′-yl)pyridin-3-yl)benzenesulfonamide]
IC50 (ATM): 1 to 100 nM
IC50 (DNA-PK): < 0.5 nM

CN(C)CCCOc1ncc(-c2ccc3ncc4c(c3c2)C2(CC2)C(=O)N4C)cc1NS(=O)(=O)C1CC1 [Example 29, N-(2-(3-(Dimethylamino)propoxy)-5-(3′-methyl-2′-oxo-2′,3′-dibydrospiro [cyclopropane-1,1′-pyrrolo[2,3-c]quinolin]-8′-yl)pyridin-3-yl) cyclopropanesulfonamide]
IC50 (ATM): 1 to 100 nM
IC50 (DNA-PK): 1 to 100 nM

CN(C)CCCOc1ncc(-c2ccc3ncc4c(c3c2)C2(CC2)C(=O)N4Cc2cn[nH]c2)cc1NS(=O)(=O)c1ccccc1 [Example 30, N-(5-(3′-((1H-Pyrazol-4-yl)methyl)-2′-oxo-2′,3′-dihydrospiro[cyclopropane-1,1′-pyrrolo[2,3-c]quinolin]-8′-yl)-2-(3-(dimethylamino)propoxy)pyridin-3-yl)benzenesulfonamide]
IC50 (ATM): 1 to 100 nM
IC50 (DNA-PK): 1 to 100 nM

CN(C)CCCOc1ncc(-c2ccc3ncc4c(c3c2)C2(COC2)C(=O)N4C)cc1NS(=O)(=O)c1ccccc1 [Example 32, N-(2-(3-(Dimethylamino)propoxy)-5-(3′-methyl-2′-oxo-2′,3′-dihydrospiro[oxetane-3,1′-pyrrolo[2,3-c]quinolin]-8′-yl)pyridin-3-yl)benzenesulfonamide]
IC50 (ATM): 1 to 100 nM
IC50 (DNA-PK): 1 to 100 nM

CN(C)CCCOc1ncc(-c2ccc3ncc4c(c3c2)C2(CCOCC2)C(=O)N4C)cc1NS(=O)(=O)c1ccccc1 [Example 33, N-(2-(3-(Dimethylamino)propoxy)-5-(3′-methyl-2′-oxo-2,2′,3′-,3′-,5,6-hexahydrospiro[pyran-4,1′-pyrrolo[2,3-c]quinolin]-8′-yl)pyridin-3-yl)benzenesulfonamide]
IC50 (ATM): 1 to 100 nM
IC50 (DNA-PK): 1 to 100 nM

CN(C)CCCCOc1ncc(-c2ccc3ncc4c(c3c2)C2(CC2)C(=O)N4C)cc1NS(=O)(=O)c1ccccc1 [Example 35, N-(2-(4-(Dimethylamino)butoxy)-5-(3′-methyl-2′-oxo-2′,3′-dihydrospiro [cyclopropane-1,1′-pyrrolo[2,3-c]quinolin]-8′-yl)pyridin-3-yl)benzenesulfonamide]
IC50 (ATM): 1 to 100 nM
IC50 (DNA-PK): 0.5 to 1 nM

CN(C)CCCOc1ncc(-c2ccc3ncc4c(c3c2)C2(CC2)C(=O)N4CC2COC2)cc1NS(=O)(=O)c1ccccc1 [Example 37, N-(2-(3-(Dimethylamino)propoxy)-5-(3′-(oxetan-3-ylmethyl)-2′-oxo-2′-3′-dihydrospiro [cyclopropane-1,1′-pyrrolo[2,3-c]quinolin]-8′-yl)pyridin-3-yl)benzenesulfonamide]
IC50 (ATM): 1 to 100 nM
IC50 (DNA-PK): 1 to 100 nM

CCN1C(=O)C2(CC2)c2c1cnc1ccc(-c3cnc(OCCCN(C)C)c(NS(=O)(=O)c4ccccc4)c3)cc21 [Example 42, N-(2-(3-(Dimethylamino)propoxy)-5-(3′-ethyl-2′-oxo-2′,3′-dihydrospiro [cyclopropane-1,1′-pyrrolo[2,3-c]quinolin]-8′-yl)pyridin-3-yl)benzenesulfonamide]
IC50 (ATM): 1 to 100 nM
IC50 (DNA-PK): 0.5 to 1 nM

CNCCOc1ncc(-c2ccc3ncc4c(c3c2)C2(CC2)C(=O)N4C)cc1NS(=O)(=O)c1ccccc1 [Example 43, N-(5-(3′-Methyl-2′-oxo-2′,3′-dihydrospiro [cyclopropane-1,1′-pyrrolo[2,3-c]quinolin]-8′-yl)-2-(2-(methylamino)ethoxy)pyridin-3-yl) benzenesulfonamide]
IC50 (ATM): 1 to 100 nM
IC50 (DNA-PK): 0.5 to 1 nM

CC(C#N)c1cccc(S(=O)(=O)Nc2cc(-c3ccc4ncc5c(c4c3)C3(CC3)C(=O)N5C)cnc2OCCCN(C)C)c1 (stereo not drawn) [Example 46, 3-(1-Cyanoethyl))-N-((2-(3-(Dimethylamino)propoxy)-5-(3′-methyl-2′-oxo-2′,3′-dihydrospiro [cyclopropane-1,1′-pyrrolo[2,3-c]quinolin]-8′-yl)pyridin-3-yl)benzenesulfonamide]
IC50 (ATM): 1 to 100 nM
IC50 (DNA-PK): < 0.5 nM
